Holding throughout (format): cell-based
Test [1] concerns CLL cells. As to the kind of experiment: annexin apoptosis assay on CLL cells. The source says: FIG. 5 illustrates an annexin apoptosis assay on CLL cells.
FIG. 9 illustrates an annexin apoptosis assay on CLL cells.
(§1) FIG. 1A illustrates a nanostring miRNA expression data table. […] FIG. 1B illustrates HDAC1 knockdown in CLL cells. FIG. 2A illustrates a human BTK mRNA map. […] FIG. 2C illustrates a miRNA map. HDAC inhibition is associated with the accumulation of activating chromatin modifications (H3K4me3) that promote gene re-expression. FIG. 3A illustrates a miRNA expression data table. FIG. 3B illustrates miRNA expression in the presence or absence of 0.4 μM Abexinostat in unmutated 17p CLL. […] FIG. 5 illustrates an annexin apoptosis assay on CLL cells. […] FIG. 6 illustrates survival after leukemia in a TCL-1 mouse model. […] FIG. 9 illustrates an annexin apoptosis assay on CLL cells. […] FIG. 10 illustrates the expression of phosphorylated BTK Y223 in the presence of Abexinostat in AML cells.

Test [2] relates to CLL cells. In words: sensitivity of CLL cells from extended-lymphocytosis or ibrutinib-resistant samples (FIG. 7). The settings on record: samples with extended lymphocytosis or that develop resistance to Ibrutinib. The method, then: as §1
For another test, the system named is Btk-directed miRNA. In words: miRNA expression in unmutated 17p CLL. The settings on record: 0.4 μM Abexinostat, unmutated 17p (high risk) CLL, FIG. 3B. The method, then:
FIG. 3A illustrates a miRNA expression data table. FIG. 3B illustrates miRNA expression in the presence or absence of 0.4 μM Abexinostat in unmutated 17p CLL.
as §1

Take `CN(C)Cc1c(C(=O)NCCOc2ccc(C(=O)NO)cc2)oc2ccccc12` [Abexinostat, 3-[(Dimethylamino)methyl]-N-{2-[4-(hydroxycarbamoyl)phenoxy]ethyl}-1-benzofuran-2-carboxamide]: in the test with CLL cells [1] (Abexinostat in combination with ibrutinib, FIG. 5), the “killing of CLL cells (annexin apoptosis), combination effect” value is listed as “synergized with ibrutinib to kill CLL cells”. In addition, the “sensitivity of CLL cells to Abexinostat (annexin apoptosis)” value in the test on CLL cells [1] (samples with extended lymphocytosis or that develop resistance to Ibrutinib, FIG. 9) was “retain sensitivity”. Also, the “sensitivity of CLL cells to Abexinostat” value in the test with CLL cells [2] is reported as “retaining sensitivity”. The “effect on miRNA expression” value in the test on Btk-directed miRNA is reported as “de-repression of Btk-directed miRNA”.

(Values after patent US20150352116A1, “HDAC INHIBITOR AND BTK INHIBITOR COMBINATIONS” (Pharmacyclics LLC, priority 2014, published 2015).)
